Series [1] is described as follows: Organic-solvent extraction of microbial inhibitors from an agro-waste hydrolysate mimic. It counts as physicochemical. As to conditions: for Inhibitor extraction, phase separation by centrifugal force / Inhibitor extraction, phase separation by separating funnel: solvent bis-(2-ethylhexyl) sebacate; for HMF remaining after extraction: standard 2.723 g/L; for Furfural remaining after extraction: standard 2.956 g/L; for TRS (total reducing sugar) after extraction: standard 52.00 g/L. The text has this:
Media composition was designed according to the inhibitory compound limit concentration reported in the literature for bio-butanol producing solventogenic Clostridia (Baral et al. Microbial inhibitors: formation and effects on acetone-butanol-ethanol fermentation of lignocellulosic biomass. Applied microbiology and biotechnology, Vol. 98(22), 2014: 9151-9172; Qureshi et al. Production of butanol (a biofuel) from agricultural residues: Part I—Use of barley straw hydrolysate. Biomass and bioenergy, Vol. 34(4), 2010: 559-565). Different volume ratio of the hydrolysate mimic and organic solvents, such as (5:1), (3:1), (2:1), (1:1) and (1:2) (vaqueous:vorganic) were tried in order to minimize extractant expenditure. Organic and aqueous phase mixing was carried out by a propeller impeller. Rotation rate (100, 200, 250, 300 and 400 rpm) and operation-time (15, 30, 45, 60 and 90 min) were tested at room temperature (25° C.). A comparative study between settling through separating funnel vs. centrifugal force assisted separation was also made to guarantee an optimal recovery of the broth phase.
A complex mixture of several reduced sugar compounds (e.g. as glucose, fructose, and xylose) and microbial inhibitors (furfural, HMF, acetic acid, levulinic acid, vanillin, vanillic acid, feluric acid and syringaldehyde) were produced during the pretreatment step (hydrolysis). In order to analyse these compounds, liquid samples were collected and analyzed using liquid chromatography-mass spectrometry (LC-MS) and liquid chromatography-tandem mass spectrometry (LC/MS-MS) equipped with a ZORBAX Carbohydrate column (5 μm, 150×4.6 mm ID column) (Agilent Technologies, USA) with D6 glucose as the internal standard and a Biobasic-18 column (5 μm, 250×4.6 mm ID) (Agilent Technologies, USA) with phenylethanol-D5 as the internal standard. […] Methanol water (8:2) and acetonitrile water (8.5:1.5) were used to dilute the sample before inhibitor and carbohydrate analysis. […]

For series [2], the system named is solventogenic Clostridia (ABE fermentation). As to conditions: cited from earlier work; for Inhibitory concentration: ABE fermentation.
Series [3] relates to Clostridium acetobutylicum NRRL B-582 (ATCC-824) (CA). Description: Bio-compatibility (solvent toxicity) batch ABE fermentation, CA. The following applies: CA. How it is done:
(§1) Clostridium acetobutylicum NRRL B-582 (ATCC-824) (CA) and Clostridium beijerinckii NRRL B-466(CB) were considered for current investigation to produce bio-butanol from different brewery industry wastes. They were kindly provided by Agricultural Research Station, USDA (USA). The microorganisms were grown and maintained in peptone-yeast extract-glucose (PYG) media under anaerobic condition (vegetative growth) at 37±1° C. and 150 rpm for 24 h and 17 h, respectively, before being transferred into the fermentation medium. The medium (g L^−1) comprised: glucose (10); yeast extract (10); peptone (5); tryptone (5); cysteine-HCl (0.5); K2HPO4 (2.04); KH2PO4 (0.04); FeSO4*7H2O (1.1×10^−3); CaCl2 (8×10^−3); MgSO4*7H2O (0.0192); NaCl (0.08); and NaHCO3 (0.4). 125 mL serum bottles (working volume 50 mL) were used for both butanol production and inoculum development (Maiti et al., January 2016, Maiti et al., August 2015). Anaerobic conditions were maintained within the bottle by sparging N2 for 10 minutes and immediately sealed by an aluminum crimp seal containing silicone septum (Fisher scientific, Canada) by means of a hand operated crimper (E-Z Crimper™, VWR, Ontario, Canada). Prior to culture development, the medium was sterilized for 20 min at 121±1° C. About 10% (v/v) (dry cell weight […]) of microbial culture in its exponential phase of growth (OD600nm=1.3-1.5) was used as inoculum for all the experiments conducted in this investigation.
(§2) Set-1, set-4 and set-5 were included as control-1, control-2 and control-3 respectively. All the experiments were carried out in P2 nutrient media as described later in batch fermentation section.
(§3) Batch fermentation was performed in 125 mL serum vials (working volume of 50 mL) at pH 6.7±0.1. The P2 medium was sterilized at 121±1° C. for 20 min. Prior to fermentation, anaerobic conditions for each bottle were maintained by sparging the medium with N2 for 10 minutes and immediately closing with an aluminum crimp seal containing silicon septum (Fisher scientific, Canada) by means of a hand-operated crimper (E-Z Crimper™, VWR, Ontario, Canada). A modified P2 medium, with the following composition, was used for fermentation experiments: Buffer→KH2PO450 g/L, K2HPO450 g/L, ammonium acetate 220 g/L; Minerals→MgSO4*7H2O 20 g/L, MnSO4*H2O 1 g/L, FeSO4*7H2O 1 g/L, NaCl 1 g/L; Vitamins→thiamin 0.1 g/L, biotin 0.001 g/L). Since brewery industry wastes were already enriched with yeast protein, no additional yeast protein nor peptone were supplemented.
(§4) The fermentation was initiated by inoculating the P2 medium with the seed cultures at a ratio of 10% (v:v). […] Fermentation experiments were performed at 37±1° C. with shaking at 150 rpm for 72 h in duplicates. 1 mL of culture broth from each batch assay was used for metabolite analysis. Data described here present average values from duplicate runs for duplicate samples.
(§5) To determine the different metabolites produced during ABE fermentation (i.e. butanol, ethanol, acetone, butyric acid, and acetic acid) liquid samples from each fermentation broth were collected and analyzed using gas chromatography (GC) (GC7890B, Agilent Technologies, USA) equipped with a FID detector and a HP-INNOWax™ column (30 m, 0.25 mm ID, 0.25 μm df). Isobutanol was used as the internal standard. Before injecting the sample (1 mL) in the GC for products analysis, the sample was centrifuged for 5 minutes at 7650×g and the supernatant was filtered by 0.45 μm syringe filter. The GC conditions comprised: helium carrier gas at a flow rate of 1 mL/min with a temperature ramp from the initial temperature of 50° C. to 150° C.

The subject of series [4] is Clostridium beijerinckii NRRL B-466 (CB). Put plainly: Bio-compatibility (solvent toxicity) batch ABE fermentation, CB. How it is done: as §1, §2, §3, §4, §5
[5] abbreviates: homogenizer rotational speed 100 rpm.
Where [6] appears, read: homogenizer rotational speed 200 rpm.
Where [7] appears, read: homogenizer rotational speed 250 rpm.
Setting [8] is: homogenizer rotational speed 300 rpm.
The mark [9] stands for this setting: homogenizer rotational speed 400 rpm.
[10] abbreviates: Extraction 1, Vaqueous:Vorganic = 2:1, hydrolysate mimic.
Where [11] appears, read: Extraction 1, Vaqueous:Vorganic = 2:1, hydrolysate mimic, standard 565.9 mg/L.
The mark [12] stands for this setting: Extraction 2, Vaqueous:Vorganic = 2:1, hydrolysate mimic.
Setting [13] is: Extraction 3, Vaqueous:Vorganic = 2:1, hydrolysate mimic.
[14] abbreviates: Extraction 4, Vaqueous:Vorganic = 2:1, hydrolysate mimic.
The mark [15] stands for this setting: first stage, ratio 2:1, hydrolysate mimic.
Setting [16] is: (5-15%) solvent supplemented to 52 g/L glucose.
Setting [17] is: Control-1 (52 g/L glucose) + (5-15)% solvent, 72 h, P2 medium.

The structures appear in SMILES notation.

Consider `COc1cc(/C=C/C(=O)O)ccc1O` [Ferulic acid, ferulic acid], for which the “Inhibitor extraction, phase separation by centrifugal force” value in series [1] (setting [5]) was 97%; in series [1] (setting [6]) it was 96%; in series [1] (setting [7]), 97%; in series [1] (setting [8]), 95%; in series [1] (setting [9]), 97%. The “Inhibitor extraction, phase separation by separating funnel” value is recorded as 94% in series [1] (setting [5]); 94% in series [1] (setting [6]); 93% in series [1] (setting [7]); 94% in series [1] (setting [8]); 96% in series [1] (setting [9]). Also, the Inhibitory concentration in series [2] is above 0.3 g/L. Also, the “Concentration that inhibited butanol production” value in series [2] is 1. (>0.3 g/L) inhibited butanol production.
On to `CCCCCCCCCC(C)=O` [2-undecanone], for which, in series [1] (setting [10]), the Ferulic acid removal is listed as 99%, the Furfural removal is recorded as 87%, the HMF removal is reported as 90% and the Syringaldehyde removal came to 97%. Moreover, in series [1] (setting [10]), the TRS removal amounted to 0%, the Vanillic acid removal was 95%, the Vanillin removal is on record as 98% and the “HMF remaining after extraction” value is given as 0.267 g/L. Further, in series [1] (setting [10]), the “Furfural remaining after extraction” value turned out to be 0.392 g/L and the “TRS (total reducing sugar) after extraction” value (“TRS (total reducing sugar)” below) came to 52.00 g/L. Further, the “Syringaldehyde remaining after extraction” value in series [1] (Extraction 1, Vaqueous:Vorganic = 2:1, hydrolysate mimic, standard 300.2 mg/L) amounted to 7.6 mg/L. For the same compound, the “Ferulic acid remaining after extraction” value in series [1] (Extraction 1, Vaqueous:Vorganic = 2:1, hydrolysate mimic, standard 485.6 mg/L) is on record as 0.7 mg/L. In addition, in series [1] (setting [11]), the “Vanillic acid remaining after extraction” value came to 9.8 mg/L and the “Vanillin remaining after extraction” value is listed as 10.3 mg/L. In addition, in series [1] (setting [12]), the Ferulic acid removal was found to be 100%, the Furfural removal is reported as 97%, the HMF removal was 97% and the Syringaldehyde removal stood at 100%. In series [1] (setting [12]), the TRS removal is recorded as 0%, the Vanillic acid removal stood at 100%, the Vanillin removal was 100% and the “HMF remaining after extraction” value is 0.077 g/L. Further, in series [1] (setting [12]), the “Furfural remaining after extraction” value is listed as 0.082 g/L and the “TRS (total reducing sugar)” value came to 52.00 g/L. In series [1] (setting [13]), the Ferulic acid removal is given as 100%, the Furfural removal came out at 100%, the HMF removal is listed as 100% and the Syringaldehyde removal was found to be 100%. For the same compound, in series [1] (setting [13]), the TRS removal turned out to be 0%, the Vanillic acid removal is 100%, the Vanillin removal is given as 100% and the “TRS (total reducing sugar)” value is recorded as 52.00 g/L. In series [1] (setting [14]), this compound showed a Ferulic acid removal of 100%, a Furfural removal of 100%, an HMF removal of 100% and a Syringaldehyde removal of 100%. In series [1] (setting [14]), the TRS removal was found to be 0%, the Vanillic acid removal was 100%, the Vanillin removal was found to be 100% and the “TRS (total reducing sugar)” value turned out to be 52.00 g/L. For the same compound, in series [1] (setting [15]), the “Extraction efficiency for phenolic compounds” value is reported as “higher than 95%” and the “Extraction efficiency towards furan derivatives” value is reported as 87-90%. Moreover, the “Reduction of bio-butanol generation in comparison with set-1” value in series [3] (setting [16]) turned out to be 70%. For the same compound, in series [3] (setting [17]), the ABE was found to be 3.82 ± 0.2 g/L and the Butanol is reported as 2.77 ± 0.12 g/L. Moreover, in series [4] (setting [16]), the “Reduction of bio-butanol generation in comparison with set-1” value was 67%. Further, in series [4] (setting [17]), the ABE was 4.28 ± 0.4 g/L and the Butanol is given as 3.11 ± 0.3 g/L.
For `COc1cc(C(=O)O)ccc1O` [Vanillic acid, vanillic acid], the “Inhibitor extraction, phase separation by centrifugal force” value in series [1] (setting [5]) is 92%; in series [1] (setting [6]), 93%; in series [1] (setting [7]), 94%; in series [1] (setting [8]), 94%; in series [1] (setting [9]), 96%. In addition, the “Inhibitor extraction, phase separation by separating funnel” value in series [1] (setting [5]) is reported as 90%; in series [1] (setting [6]) it was 91%; in series [1] (setting [7]), 93%; in series [1] (setting [8]), 93%; in series [1] (setting [9]) it was 93%. For the same compound, the Inhibitory concentration in series [2] is above 1 g/L. In addition, in series [2], the “Concentration that stopped bio-butanol production” value is listed as 1. (>1 g/L) stopped bio-butanol.

The record behind these values is patent US10662445B2, “Process for the production of bio-butanol by fermentation of glycosidic waste matter” (priority 2018, dated 2020).
